Measured values as given in US7799924B2, “Substituted homopiperidine, piperidine or pyrrolidine derivatives” (High Point Pharmaceuticals, LLC, priority 2002, dated 2010).

CN1CCC(c2noc(-c3ccc(-c4ccccc4)cc3)n2)CC1.CS(=O)(=O)O
melting point: 222 to 224 °C
